# Measurements reported in BindingDB's records for doi:10.1016/0968-0896(96)00130-7 (Sankyo, 1996).
# Target: T1, Dimer of Gag-Pol polyprotein [489-587] (Human immunodeficiency virus 1, UniProt P12497)
# T1 construct: 489-587
# Experiment: Protease Inhibition Assay
# Conditions: pH 4.7; 37 °C
# Protocol: The inhibitory activities of the compounds toward HIV-1 PR were determined by sodium dodecyl sulfate-polyacrylamide gel electrophoresis (SDS-PAGE) assay. The Ki values of active compounds were determined using the partially purified protease and the synthetic substrate Ac-Ser-Gln-AsnTyr-Pro-Ile-Val-NH2.
row,Structure (SMILES),Ki
1,"CC(C)(C)NC(=O)[C@@H]1C[C@H](Cl)CN1C(=O)[C@@H](O)[C@H](Cc1ccccc1)NC(=O)[C@H](CC(N)=O)NC(=O)c1noc2ccccc12 [(2S)-2-(1,2-benzoxazol-3-ylformamido)-N-[(2S,3S)-4-[(2S,4S)-2-(tert-butylcarbamoyl)-4-chloropyrrolidin-1-yl]-3-hydroxy-4-oxo-1-phenylbutan-2-yl]butanediamide]",28 nM
2,"CC(C)(C)NC(=O)[C@@H]1C[C@@H](Cl)CN1C(=O)[C@@H](O)[C@H](Cc1ccccc1)NC(=O)[C@H](CC(N)=O)NC(=O)OCc1ccccc1 [Z-Asn-(2S,3S).AHPBA. [4(R ).chloro] Pro tert-butylamide]",90 nM
3,"CC(C)(C)NC(=O)[C@@H]1C[C@@H](O)CN1C(=O)[C@@H](O)[C@H](Cc1ccccc1)NC(=O)[C@H](CC(N)=O)NC(=O)OCc1ccccc1 [benzyl N-[(1S)-1-{[(2S,3S)-4-[(2S,4R)-2-(tert-butylcarbamoyl)-4-hydroxypyrrolidin-1-yl]-3-hydroxy-4-oxo-1-phenylbutan-2-yl]carbamoyl}-2-carbamoylethyl]carbamate]",56 nM
4,"CC(C)(C)NC(=O)[C@@H]1C(O)CCN1C(=O)[C@@H](O)[C@H](Cc1ccccc1)NC(=O)[C@H](CC(N)=O)NC(=O)OCc1ccccc1 (stereo partly drawn) [benzyl N-[(1S)-1-{[(2S,3S)-4-[(2S)-2-(tert-butylcarbamoyl)-3-hydroxypyrrolidin-1-yl]-3-hydroxy-4-oxo-1-phenylbutan-2-yl]carbamoyl}-2-carbamoylethyl]carbamate]",0.1 nM
5,"COc1cccc2cc(C(=O)N[C@@H](CC(N)=O)C(=O)N[C@@H](Cc3ccccc3)[C@H](O)C(=O)N3C[C@@H](Cl)C[C@H]3C(=O)NC(C)(C)C)oc12 [(2S)-N-[(2S,3S)-4-[(2S,4S)-2-(tert-butylcarbamoyl)-4-chloropyrrolidin-1-yl]-3-hydroxy-4-oxo-1-phenylbutan-2-yl]-2-[(7-methoxy-1-benzofuran-2-yl)formamido]butanediamide]",4.5 nM
6,"CC(C)(C)NC(=O)[C@@H]1CC(=O)CN1C(=O)[C@@H](O)[C@H](Cc1ccccc1)NC(=O)[C@H](CC(N)=O)NC(=O)OCc1ccccc1 [Z-Asn.(2S,3S)-AHPBA.(4.oxo)Pro tert-butylamide]",12.5 nM
7,"CC(C)(C)NC(=O)[C@@H]1CC(Cl)CN1C(=O)[C@@H](O)[C@H](Cc1ccccc1)NC(=O)[C@H](CC(N)=O)NC(=O)OCc1ccccc1 (stereo partly drawn) [benzyl N-[(1S)-1-{[(2S,3S)-4-[(2S)-2-(tert-butylcarbamoyl)-4-chloropyrrolidin-1-yl]-3-hydroxy-4-oxo-1-phenylbutan-2-yl]carbamoyl}-2-carbamoylethyl]carbamate]",8 nM
8,"CC(C)(C)NC(=O)[C@@H]1CC(F)(F)CN1C(=O)[C@@H](O)[C@H](Cc1ccccc1)NC(=O)[C@H](CC(N)=O)NC(=O)OCc1ccccc1 [benzyl N-[(1S)-1-{[(2S,3S)-4-[(2S)-2-(tert-butylcarbamoyl)-4,4-difluoropyrrolidin-1-yl]-3-hydroxy-4-oxo-1-phenylbutan-2-yl]carbamoyl}-2-carbamoylethyl]carbamate]",35 nM
9,"Cn1nc(C(=O)N[C@@H](CC(N)=O)C(=O)N[C@@H](Cc2ccccc2)[C@H](O)C(=O)N2C[C@@H](Cl)C[C@H]2C(=O)NC(C)(C)C)c2ccccc21 [(2S)-N-[(2S,3S)-4-[(2S,4S)-2-(tert-butylcarbamoyl)-4-chloropyrrolidin-1-yl]-3-hydroxy-4-oxo-1-phenylbutan-2-yl]-2-[(1-methyl-1H-indazol-3-yl)formamido]butanediamide]",16 nM
10,"CC(C)(C)NC(=O)[C@@H]1CCCN1C(=O)[C@@H](O)[C@H](Cc1ccccc1)NC(=O)[C@H](CC(N)=O)NC(=O)OCc1ccccc1 [benzyl N-[(1S)-1-{[(2S,3S)-4-[(2S)-2-(tert-butylcarbamoyl)pyrrolidin-1-yl]-3-hydroxy-4-oxo-1-phenylbutan-2-yl]carbamoyl}-2-carbamoylethyl]carbamate]",57.5 nM
11,"CC(C)(C)NC(=O)[C@@H]1CC(Sc2ccccc2)CN1C(=O)[C@@H](O)[C@H](Cc1ccccc1)NC(=O)[C@H](CC(N)=O)NC(=O)OCc1ccccc1 (stereo partly drawn) [Z.Asn-(2S,3S)-AHPBA-[4(S)-phenylthio]Pro tert-butylamide]",125 nM
12,"COc1ccc2[nH]c(C(=O)N[C@@H](CC(N)=O)C(=O)N[C@@H](Cc3ccccc3)[C@H](O)C(=O)N3C[C@@H](Cl)C[C@H]3C(=O)NC(C)(C)C)cc2c1 [(2S)-N-[(2S,3S)-4-[(2S,4S)-2-(tert-butylcarbamoyl)-4-chloropyrrolidin-1-yl]-3-hydroxy-4-oxo-1-phenylbutan-2-yl]-2-[(5-methoxy-1H-indol-2-yl)formamido]butanediamide]",21.5 nM
13,"CC(C)(C)NC(=O)[C@@H]1[C@@H](O)CCN1C(=O)[C@@H](O)[C@H](Cc1ccccc1)NC(=O)[C@H](CC(N)=O)NC(=O)OCc1ccccc1 [Z.Asn-(2S,3S).AHPBA.[3(S)-hydroxy]Pro tert-butyl-amide]",32 nM
14,"Cn1cc(C(=O)N[C@@H](CC(N)=O)C(=O)N[C@@H](Cc2ccccc2)[C@H](O)C(=O)N2C[C@@H](Cl)C[C@H]2C(=O)NC(C)(C)C)c2ccccc21 [(1-Methylindole-3-carbonyl)- Asn - (2S,3S)-AHPBA-[4(S)-chloro]Pro tert-butylamide]",20 nM
15,"COC1(OC)C[C@@H](C(=O)NC(C)(C)C)N(C(=O)[C@@H](O)[C@H](Cc2ccccc2)NC(=O)[C@H](CC(N)=O)NC(=O)OCc2ccccc2)C1 [benzyl N-[(1S)-1-{[(2S,3S)-4-[(2S)-2-(tert-butylcarbamoyl)-4,4-dimethoxypyrrolidin-1-yl]-3-hydroxy-4-oxo-1-phenylbutan-2-yl]carbamoyl}-2-carbamoylethyl]carbamate]",92 nM
16,"CC(C)(C)NC(=O)[C@@H]1CC(O)CN1C(=O)[C@@H](O)[C@H](Cc1ccccc1)NC(=O)[C@H](CC(N)=O)NC(=O)OCc1ccccc1 (stereo partly drawn) [Z.Asn-(2S,3S)-AHPBA-[4(S)-hydroxy]Pro tert-butylamide]",1 nM
17,"CC(C)(C)NC(=O)[C@@H]1C[C@H](Cl)CN1C(=O)[C@@H](O)[C@H](Cc1ccccc1)NC(=O)[C@H](CC(N)=O)NC(=O)c1cc2cc(F)ccc2[nH]1 [(2S)-N-[(2S,3S)-4-[(2S,4S)-2-(tert-butylcarbamoyl)-4-chloropyrrolidin-1-yl]-3-hydroxy-4-oxo-1-phenylbutan-2-yl]-2-[(5-fluoro-1H-indol-2-yl)formamido]butanediamide]",12.5 nM
18,"CC(C)(C)NC(=O)[C@@H]1CC(Br)CN1C(=O)[C@@H](O)[C@H](Cc1ccccc1)NC(=O)[C@H](CC(N)=O)NC(=O)OCc1ccccc1 (stereo partly drawn) [Z-Asn-(2S,3S)-AHPBA.[4(S)-bromo]Pro tert-butylamide]",22.5 nM
19,"CC(C)(C)NC(=O)[C@@H]1CC(F)CN1C(=O)[C@@H](O)[C@H](Cc1ccccc1)NC(=O)[C@H](CC(N)=O)NC(=O)OCc1ccccc1 (stereo partly drawn) [Z-Asn-(2S,3S)-AHPBA-[4(S)-fluoro] Pro tert-butylamide]",18 nM
20,"CC(C)(C)NC(=O)[C@@H]1CC(N2CCOCC2)CN1C(=O)[C@@H](O)[C@H](Cc1ccccc1)NC(=O)[C@H](CC(N)=O)NC(=O)OCc1ccccc1 (stereo partly drawn) [benzyl N-[(1S)-1-{[(2S,3S)-4-[(2S)-2-(tert-butylcarbamoyl)-4-(morpholin-4-yl)pyrrolidin-1-yl]-3-hydroxy-4-oxo-1-phenylbutan-2-yl]carbamoyl}-2-carbamoylethyl]carbamate]",1 nM
21,"CC(C)(C)NC(=O)[C@@H]1C[C@H](Cl)CN1C(=O)[C@@H](O)[C@H](Cc1ccccc1)NC(=O)[C@H](CC(N)=O)NC(=O)c1cnc2ccccc2n1 [(Quinoxaline-2-carbonyl)-Asn-(2S,3S)-AHPBA-[4(S)-chloro]Pro tert-butylamide]",4.7 nM
22,"CC(C)(C)NC(=O)[C@@H]1[C@@H](Cl)CCN1C(=O)[C@@H](O)[C@H](Cc1ccccc1)NC(=O)[C@H](CC(N)=O)NC(=O)OCc1ccccc1 [Z-Asn.(2S,3S)-AHPBA.[3(S)-chloro]Pro tert-butylamide]",14.5 nM
